Measured values as given in patent publication US6967196B1, “Sulfonamide compounds and uses thereof” (Bristol-Myers Squibb Company, priority 1999, dated 2005).
Where a name gives a salt, the structure may show the parent alone. Read-outs that look alike come from different tables or passages of the source.

Tested on: amyloid β production in transfected H4 (human neuroglioma) cells stably expressing APP constructs
Assay: In vitro cell-based assay of inhibitors of amyloid β production (ELISA)
Conditions: amyloid β in medium by ELISA, read-out: ACTIVITY (IC50, inhibition of amyloid β production)
Procedure: In Vitro Cell-Based Assay of Inhibitors of Amyloid β Production
Transfected H4 (human neuroglioma) cells stably expressing APP constructs are used to identify and assess inhibitors of Aβ production. In brief, cells lines are exposed to compounds, and the effect of each compound on amyloid β production is determined by measuring the amount of amyloid β produced using an enzyme linked immunosorbent assay (ELISA) that detects amyloid β (see, for example, Seubert et al., (1992) Nature, 359:325-327).
Transfected cells that stably express wild-type and variant forms of APP are plated in 96-well format plates at a density sufficient for the rapid detection of the secreted amyloid β (experimentally predetermined for a particular stable cell population). Cells are plated at least six hours prior to the introduction of the test compound at which time the growth medium is replaced by fresh medium containing the compound to be tested. All synthetic agents are initially screened at doses ranging from 10-100 μM. Higher dilutions of agents can be used to minimize cytotoxicity. Incubation of cells with a test compound continues for approximately 16 hours at which time aliquots of medium from each well are removed and assayed for amyloid β.
ELISA is carried out by methods known in the art (see, e.g., Haass et al., Antibodies: A Laboratory Manual, Harlow and lane, Editors, Cold Spring Harbor Press, 1988) The capture antibody is typically a mouse monoclonal (IgG1/kβ-APPa) which recognizes the carboxyl terminal epitope of amyloid β. The specificity of the capture antibody insures measurement of amyloid β without interference from other secreted APP fragments that share amino acid sequence (amyloid β 1-16) homology with amyloid β but lack the carboxy-terminal region. The detecting antibody is typically an affinity-purified rabbit polyclonal antibody that is specific for the amino terminus of amyloid β.
Results from test compounds are compared to results obtained when cells are treated with control agents. Amyloid β levels are determined by comparison to a standard curve obtained by subjecting a range of known amounts of amyloid β to the ELISA.
A compound is identified as “active” when it inhibits cellular production of amyloid β relative to levels in control samples by at least 50% at the initial tested concentration without significant cytotoxicity. Active compounds are then assayed in dose-response experiments to determine the lowest dose of compound necessary for inhibition of amyloid β production.

[1] = transfected H4 cells stably expressing APP, approximately 16 hours incubation
[2] = Homo sapiens, 16 h, transfected H4 cells expressing APP, approximately 16 hours incubation
[3] = Homo sapiens, 16 h, transfected H4 cells stably expressing APP, approximately 16 hours incubation
[4] = transfected H4 cells stably expressing APP, approximately 16 hours incubation, Table B
[5] = transfected H4 cells stably expressing APP constructs, approximately 16 hours incubation
[6] = transfected H4 cells stably expressing APP, approx. 16 h incubation

Q: `C[C@@H](c1ccccc1OCCCn1ccnc1)N(c1cc(F)ccc1F)S(=O)(=O)c1ccc(Cl)cc1` [Example 861, 4-chloro-N-(2,5-difluorophenyl)-N-((1S)-1-{2-[3-(1H-imidazol-1-yl)propoxy]phenyl}ethyl)benzenesulfonamide hydrochloride] was tested. Which IC50 (transfected H4 cells stably expressing APP, approximately 16 hours incubation, hydrochloride) did it give?
A: 100 to 500 nM

Q: How did the IC50 [1] turn out when `O=S(=O)(c1ccc(Cl)cc1)N(Cc1ccccc1OCC[S+]([O-])C1CCCCC1)c1cc(F)ccc1F` (stereo not drawn) [Example 1050, 4-chloro-N-{2-[2-(cyclohexylsulfinyl)ethoxy]benzy}-N-(2,5-difluorophenyl)benzenesulfonamide] was run?
A: > 500 nM

Q: With `C[C@H](C(=O)NCCc1cccs1)N(c1cc(Cl)ccc1F)S(=O)(=O)c1ccc(Cl)cc1` [Example 1317] as the compound, how does the IC50 [2] read?
A: > 500 nM

Q: Which IC50 [1] does the source give for “4-chloro-N-{3-[2-(1-{[(4-chlorophenyl)sulfonyl]-2,5-difluoroanilino}ethyl)phenoxy]propyl}benzamide [Example 811]” here?
A: 100 to 500 nM

Q: With `COc1cc(C(=O)N2CCCCC2CCOc2ccccc2CN(c2cc(F)ccc2F)S(=O)(=O)c2ccc(Cl)cc2)cc(OC)c1OC` (stereo not drawn) [Example 938, 4-chloro-N-(2,5-difluorophenyl)-N-(2-{2-[1-(3,4,5-trimethoxybenzoyl)-2-piperidinyl]ethoxy}benzyl)benzenesulfonamide] as the compound, how does the IC50 [3] read?
A: > 500 nM

Q: Which IC50 [3] does the source give for `O=S(=O)(c1ccc(Cl)cc1)N(Cc1ccccc1OCCCCCCl)c1ccccc1` [Example 1026, 4-chloro-N-{2-[(5-chloropentyl)oxy]benzyl}-N-phenylbenzenesulfonamide] here?
A: > 500 nM

Q: For `CCN(CCCn1ccnc1)C(=O)OC[C@@H](C)N(c1cc(Cl)ccc1CO)S(=O)(=O)c1ccc(Cl)cc1` [Example 1296], which IC50 [2] is on record?
A: > 10000 nM

Q: How did the IC50 [4] turn out when `CC(c1ccccc1OCCCC(=O)O)N(c1cc(F)ccc1F)S(=O)(=O)c1ccc(Cl)cc1` (stereo not drawn) [Example 377, 4-[2-(1-{[(4-Chlorophenyl)sulfonyl]-2,5-difluoroanilino}ethyl)phenoxy]butanoic Acid] was run?
A: 50 to 100 nM

Q: For `C[C@H](CCCCN1CCC(CS(C)(=O)=O)CC1)N(c1cc(Cl)ccc1Cl)S(=O)(=O)c1ccc(Cl)cc1` [Example 1150, 4-chloro-N-(2,5-dichlorophenyl)-N-[5-[[4-(methylsulfonyl)methyl]-1-piperidinyl]-1(R)-methylpentyl]benzenesulfonamide], which IC50 [5] is on record?
A: 100 to 500 nM

Q: For `CC(C)[C@H](NC(=O)CCCC[C@@H](C)N(c1cc(Cl)ccc1F)S(=O)(=O)c1ccc(Cl)cc1)C(=O)O` [Example 547, (R)-4-Chloro-N-(5-chloro-2-fluorophenyl)-N-[6-[N-(S)-[1-(carboxy)-2-methylpropyl]amino]-1-methyl-6-oxohexyl]benzenesulfonamide], which IC50 [6] is on record?
A: 100 to 500 nM

Q: `C[C@H](CCN1CCC(S(C)(=O)=O)CC1)N(c1cc(Cl)ccc1Cl)S(=O)(=O)c1ccc(Cl)cc1` [Example 1146, 4-chloro-N-(2,5-dichlorophenyl)-N-[3-[(4-methylsulfonyl)-1-piperidinyl]-1(R)-methylpropyl]benzenesulfonamide] was tested. Which IC50 [5] did it give?
A: 100 to 500 nM

Q: With `C[C@H](CCCN1CCCC(S(C)(=O)=O)C1)N(c1cc(Cl)ccc1Cl)S(=O)(=O)c1ccc(Cl)cc1` (stereo partly drawn) [Example 1109, 4-chloro-N-(2,5-dichlorophenyl)-N-[4-[(3-methylsulfonyl)-1-piperidinyl]-1(R)-methylbutyl]benzenesulfonamide] as the compound, how does the IC50 [5] read?
A: ≤ 25 nM

Q: Which IC50 [4] does the source give for `O=S(=O)(c1ccc(Cl)cc1)N(Cc1ccccc1OCCCNC1CC1)c1ccccc1` [Example 297, 4-Chloro-N-{2-[3-(cyclopropylamino)propoxy]benzyl}-N-phenylbenzenesulfonamide Hydrochloride] here?
A: 50 to 100 nM

Q: How did the IC50 [3] turn out when `CCCCOc1ccc(C(=O)N2CCCCC2CCOc2ccccc2CN(c2cc(F)ccc2F)S(=O)(=O)c2ccc(Cl)cc2)cc1` (stereo not drawn) [Example 899, N-(2-{2-[1-(4-butoxybenzoyl)-2-piperidinyl]ethoxy}benzyl)-4-chloro-N-(2,5-difluorophenyl)benzenesulfonamide] was run?
A: > 500 nM

Q: `CC(C)Oc1c(NCC[C@@H](C)N(c2cc(Cl)ccc2F)S(=O)(=O)c2ccc(Cl)cc2)c(=O)c1=O` [Example 1127, 4-chloro-N-(5-chloro-2-fluorophenyl)-N-[3-(2-isopropoxy-3,4-dioxo-1-cyclobutenyl)amine-1(R)-methylpropyl]benzenesulfonamide] was tested. Which IC50 [5] did it give?
A: 50 to 100 nM

Q: For “[({4-[2-((1R)-1-{[(4-chlorophenyl)sulfonyl]-2,5-difluoroanilino}ethyl)-5-fluorophenyl]butanoyl}amino)oxy]acetic acid [Example 1077]”, which IC50 [1] is on record?
A: > 500 nM

Q: How did the IC50 [6] turn out when “N-{2-[2-(1-{[(4-chlorophenyl)sulfonyl]-2,5-difluoroanilino}ethyl)phenoxy]ethyl}-N-ethyl-1-adamantanecarboxamide [Example 769]” was run?
A: 100 to 500 nM

Q: `CC(C)N(C)S(=O)(=O)CCC[C@@H](C)N(c1cc(Cl)ccc1Cl)S(=O)(=O)c1ccc(Cl)cc1` [Example 1212, 4-chloro-N-[2,5-dichlorophenyl]-N-[4-[[N-(1-methylethyl)methylamino]sulfonyl]-1(R)-methylbutyl]benzenesulfonamide] was tested. Which IC50 (Homo sapiens, 16 h, transfected H4 cells stably expressing APP constructs, approximately 16 hours incubation) did it give?
A: ≤ 25 nM

Q: With “(2E)-N-{4-[2-(1-{[(4-chlorophenyl)sulfonyl]-2,5-difluoroanilino}ethyl)phenoxy]butyl}-N-ethyl-2-butenamide [Example 514]” as the compound, how does the IC50 [4] read?
A: 100 to 500 nM

Q: How did the IC50 [5] turn out when `C[C@H](COC(=O)NCCCn1ccnc1)N(c1cc(Cl)ccc1Cl)S(=O)(=O)c1ccc(Cl)cc1` [Example 1240, 4-Chloro-N-(2,5-dichlorophenyl)-N-[2-[[N′-[3-(1H-imidazol-1-yl)propylamino]carbonyl]oxy]-(R)-1-methylethyl]benzenesulfonamide] was run?
A: ≤ 25 nM

Q: With “N-{2-[2-(1-{[(4-chlorophenyl)sulfonyl]-2,5-difluoroanilino}ethyl)phenoxy]ethyl}-N-ethyltetradecanamide [Example 928]” as the compound, how does the IC50 [1] read?
A: > 500 nM

Q: Which IC50 [5] does the source give for `CSCCC[C@@H](C)N(c1cc(Cl)ccc1F)S(=O)(=O)c1ccc(Cl)cc1` [Example 1178, 4-chloro-N-[5-chloro-2-fluorophenyl]-N-[1(R)-methyl-(4-methylthio)butyl]benzenesulfonamide] here?
A: ≤ 25 nM

Q: How did the IC50 [3] turn out when `C[C@H](c1ccc(F)cc1CCCC(=O)NN(C)C)N(c1cc(F)ccc1F)S(=O)(=O)c1ccc(Cl)cc1` [Example 1078, 4-chloro-N-(2,5-difluorophenyl)-N-((1R)-1-{2-[4-(2,2-dimethylhydrazino)-4-oxobutyl]-4-fluorophenyl}ethyl)benzenesulfonamide] was run?
A: > 500 nM

Q: With `C[C@H](COC(=O)NCCCn1ccnc1)N(c1cc(Cl)ccc1CO)S(=O)(=O)c1ccc(Cl)cc1` [Example 1285] as the compound, how does the IC50 [2] read?
A: ≤ 25 nM

Q: `C[C@H](c1ccccc1CCO)N(c1cc(F)ccc1F)S(=O)(=O)c1ccc(Cl)cc1` [Example 1055, 4-chloro-N-(2,5-difluorophenyl)-N-{(1R)-1-[2-(2-hydroxyethyl)phenyl]ethyl}benzenesulfonamide] was tested. Which IC50 [3] did it give?
A: > 500 nM

Q: How did the IC50 [5] turn out when `CC[S+]([O-])CCC[C@@H](C)N(c1cc(Cl)ccc1Cl)S(=O)(=O)c1ccc(Cl)cc1` (stereo partly drawn) [Example 1172, 4-chloro-N-[2,5-dichlorophenyl]-N-[1(R)-methyl-(4-ethylsulfinyl)butyl]benzenesulfonamide] was run?
A: ≤ 25 nM

Q: With “S-ethyl 2-[2-(1-{[(4-chlorophenyl)sulfonyl]-2,5-difluoroanilino}ethyl)phenoxy]ethyl(methyl)thiocarbamate [Example 856]” as the compound, how does the IC50 [1] read?
A: 100 to 500 nM

Q: With `C[C@H](C(=O)N[C@@H]1CC2CCC1C2)N(c1cc(Cl)ccc1F)S(=O)(=O)c1ccc(Cl)cc1` (stereo partly drawn) [Example 627] as the compound, how does the IC50 [6] read?
A: 100 to 500 nM

Q: With `C[C@H](CCCSC(C)(C)C)N(c1cc(Cl)ccc1CO)S(=O)(=O)c1ccc(Cl)cc1` [Example 1229] as the compound, how does the IC50 [5] read?
A: ≤ 25 nM

Q: With `C[C@H](c1ccccc1OCCCN(C)C(=O)C(C)(C)C)N(c1cc(F)ccc1F)S(=O)(=O)c1ccc(Cl)cc1` [Example 1059, N-{3-[2-((1R)-1-{[(4-chlorophenyl)sulfonyl]-2,5-difluoroanilino}ethyl)phenoxy]propyl}-N,2,2-trimethylpropanamide] as the compound, how does the IC50 [3] read?
A: > 500 nM
